Patent publication US9179694B2, “Method and composition for enhancing milk production and milk component concentrations” (PURINA ANIMAL NUTRITION LLC, priority 2003, dated 2015)
Marks after values point to notes of the source that are not given here.

Assay: 4% fat-corrected milk production in sorbitol feeding trials
Format: in vivo, Holstein cows
Source text: To convert a particular quantity (weight) of a milk sample to the quantity (weight) of Fat-Corrected Milk, based on a correction to a concentration of four weight percent fat, based on the total weight off the Fat-Corrected Milk, the following equation is employed: 4 wt % FCM=Original Milk Weight×(0.4+(0.15×% TFOM)) where: • the term 4 wt % FCM means the calculated weight of Fat-Corrected Milk, based on a correction to a concentration of four weight percent fat, based on the total weight of the Fat-Corrected Milk, • the term Original Milk Weight means the weight of the original milk sample that is being corrected to a four weight percent fat basis, and • % TFOM is the weight % total fat in the original milk sample, based on the total weight of the original milk sample. Each cow of each of the six different trials (Control Trial #1, Control Trial #2, Pre-Partum Trial #1, Pre-Partum Trial #2, Pre/Post Trial #1, and Pre/Post Trial #2) was milked three times daily and the weight of produced milk by each cow was recorded at each milking. The milk from each cow was sampled once per week (⅓ of the sample volume from each of the three milkings occurring on the weekly milk sampling day) and was analyzed for true protein, total fat, lactose, and total solids, as detailed in the property determination and characterization techniques presented above. Additionally, samples of blood were periodically obtained from each cow during the four trials (Control Trial 2, Pre-Partum Trial #2, Pre/Post Trial #1, and Pre/Post Trial #2) encompassed in Example Two and were analyzed for non-esterified fatty acid (NEFA) content as detailed in the property determination and characterization techniques presented above. No NEFA analysis was conducted on the cows employed in Control Trial #1 or Pre-Partum Trial #1 that are the subject of Example One. Example One includes Control Trial #1 and Pre-Partum Trial #1. Both primiparious cows and multiparious cows were included in Control Trial #1 and Pre-Partum Trial #1. Five primiparious cows and fifteen multiparious cows were included in Control Trial #1; likewise, five primiparious cows and fifteen multiparious cows were included in Pre-Partum Trial #1. All cows included in Control Trial #1 and Pre-Partum Trial #1 were Holsteins. Example Two includes Control Trial #2, Pre-Partum Trial #2, Pre/Post Trial #1, and Pre/Post Trial #2. Only multiparious, Holstein cows were included in Control Trial #2, Pre-Partum Trial #1, Pre/Post Trial #1, and Pre/Post Trial #2. Eighteen multiparious cows were included in both Control Trial #2 and Pre-Partum Trial #2, while sixteen multiparious cows were included in Pre/Post Trial #1 and seventeen multiparious cows were included in Pre/Post Trial #2.

For `OC[C@@H](O)[C@@H](O)[C@H](O)[C@@H](O)CO` [sorbitol], the “Milk Production (4.0% fat basis)” value (Pre-Partum Trial #1 (75/0/0 g/day in wk −3..−1/+1..+4/+5..+8), multiparious cows, weeks +1 through +8) was 98.6 lbs/day, the “Milk Production (4.0% fat basis)” value (Pre-Partum Trial #1 (75/0/0 g/day in wk −3..−1/+1..+4/+5..+8), primiparious cows, weeks +1 through +8) was 79.3 lbs/day and the “4% fat-corrected milk production increase” value (Pre-Partum Trial #1 (75 g/day wk −3..−1 only) versus Control Trial #1, multiparious cows, weeks +1 through +8) was 12.4%. For the same molecule, the “increase in production of 4% fat-corrected milk” value (Pre-Partum Trial #1 (75 g/day wk −3..−1 only) versus Control Trial #1, primiparious cows, weeks +1 through +8) was 7.6%, the “Milk Production (4.0% fat basis)” value (Pre-Partum Trial #2 (75/0/100 g/day in wk −3..−1/+1..+4/+5..+8), multiparious cows, week +1) was 71.1^a lbs/day and the “Milk Production (4.0% fat basis)” value (Pre-Partum Trial #2 (75/0/100 g/day in wk −3..−1/+1..+4/+5..+8), multiparious cows, week +2) was 100 lbs/day. The “Milk Production (4.0% fat basis)” value (Pre-Partum Trial #2 (75/0/100 g/day in wk −3..−1/+1..+4/+5..+8), multiparious cows, week +3) was 104 lbs/day, the “Milk Production (4.0% fat basis)” value (Pre-Partum Trial #2 (75/0/100 g/day in wk −3..−1/+1..+4/+5..+8), multiparious cows, week +4) was 101 lbs/day and the “Milk Production (4.0% fat basis)” value (Pre-Partum Trial #2 (75/0/100 g/day in wk −3..−1/+1..+4/+5..+8), multiparious cows, week +5) was 104^ab lbs/day. The “Milk Production (4.0% fat basis)” value (Pre-Partum Trial #2 (75/0/100 g/day in wk −3..−1/+1..+4/+5..+8), multiparious cows, week +6) was 102 lbs/day, the “Milk Production (4.0% fat basis)” value (Pre-Partum Trial #2 (75/0/100 g/day in wk −3..−1/+1..+4/+5..+8), multiparious cows, week +7) was 102 lbs/day and the “Milk Production (4.0% fat basis)” value (Pre-Partum Trial #2 (75/0/100 g/day in wk −3..−1/+1..+4/+5..+8), multiparious cows, week +8) was 99.5^ab lbs/day. For the same molecule, the “Milk Production (4.0% fat basis)” value (Pre-Partum Trial #2 (75/0/100 g/day in wk −3..−1/+1..+4/+5..+8), multiparious cows, weeks +1 through +4) was 94.4 lbs/day, the “Milk Production (4.0% fat basis)” value (Pre-Partum Trial #2 (75/0/100 g/day in wk −3..−1/+1..+4/+5..+8), multiparious cows, weeks +1 through +8) was 98 lbs/day and the “Milk Production (4.0% fat basis)” value (Pre-Partum Trial #2 (75/0/100 g/day in wk −3..−1/+1..+4/+5..+8), multiparious cows, weeks +5 through +8) was 102 lbs/day. The “Milk Production (4.0% fat basis)” value (Pre/Post Trial #1 (150/125/100 g/day in wk −3..−1/+1..+4/+5..+8), multiparious cows, week +1) was 82.1^ab lbs/day, the “Milk Production (4.0% fat basis)” value (Pre/Post Trial #1 (150/125/100 g/day in wk −3..−1/+1..+4/+5..+8), multiparious cows, week +1, two-trial comparison with Control Trial #2 (Table 23)) was 82.4 lbs/day and the “Milk Production (4.0% fat basis)” value (Pre/Post Trial #1 (150/125/100 g/day in wk −3..−1/+1..+4/+5..+8), multiparious cows, week +2) was 100 lbs/day. The “Milk Production (4.0% fat basis)” value (Pre/Post Trial #1 (150/125/100 g/day in wk −3..−1/+1..+4/+5..+8), multiparious cows, week +2, two-trial comparison with Control Trial #2 (Table 23)) was 99.7 lbs/day, the “Milk Production (4.0% fat basis)” value (Pre/Post Trial #1 (150/125/100 g/day in wk −3..−1/+1..+4/+5..+8), multiparious cows, week +3) was 107 lbs/day and the “Milk Production (4.0% fat basis)” value (Pre/Post Trial #1 (150/125/100 g/day in wk −3..−1/+1..+4/+5..+8), multiparious cows, week +3, two-trial comparison with Control Trial #2 (Table 23)) was 107 lbs/day. For the same molecule, the “Milk Production (4.0% fat basis)” value (Pre/Post Trial #1 (150/125/100 g/day in wk −3..−1/+1..+4/+5..+8), multiparious cows, week +4) was 109 lbs/day, the “Milk Production (4.0% fat basis)” value (Pre/Post Trial #1 (150/125/100 g/day in wk −3..−1/+1..+4/+5..+8), multiparious cows, week +4, two-trial comparison with Control Trial #2 (Table 23)) was 109 lbs/day and the “Milk Production (4.0% fat basis)” value (Pre/Post Trial #1 (150/125/100 g/day in wk −3..−1/+1..+4/+5..+8), multiparious cows, week +5) was 108^ab lbs/day. The “Milk Production (4.0% fat basis)” value (Pre/Post Trial #1 (150/125/100 g/day in wk −3..−1/+1..+4/+5..+8), multiparious cows, week +5, two-trial comparison with Control Trial #2 (Table 23)) was 108 lbs/day, the “Milk Production (4.0% fat basis)” value (Pre/Post Trial #1 (150/125/100 g/day in wk −3..−1/+1..+4/+5..+8), multiparious cows, week +6) was 109 lbs/day and the “Milk Production (4.0% fat basis)” value (Pre/Post Trial #1 (150/125/100 g/day in wk −3..−1/+1..+4/+5..+8), multiparious cows, week +6, two-trial comparison with Control Trial #2 (Table 23)) was 109 lbs/day. For the same molecule, the “Milk Production (4.0% fat basis)” value (Pre/Post Trial #1 (150/125/100 g/day in wk −3..−1/+1..+4/+5..+8), multiparious cows, week +7) was 103 lbs/day, the “Milk Production (4.0% fat basis)” value (Pre/Post Trial #1 (150/125/100 g/day in wk −3..−1/+1..+4/+5..+8), multiparious cows, week +7, two-trial comparison with Control Trial #2 (Table 23)) was 103 lbs/day and the “Milk Production (4.0% fat basis)” value (Pre/Post Trial #1 (150/125/100 g/day in wk −3..−1/+1..+4/+5..+8), multiparious cows, week +8) was 108.7^b lbs/day. For the same molecule, the “Milk Production (4.0% fat basis)” value (Pre/Post Trial #1 (150/125/100 g/day in wk −3..−1/+1..+4/+5..+8), multiparious cows, week +8, two-trial comparison with Control Trial #2 (Table 23)) was 109 lbs/day, the “Milk Production (4.0% fat basis)” value (Pre/Post Trial #1 (150/125/100 g/day in wk −3..−1/+1..+4/+5..+8), multiparious cows, weeks +1 through +4) was 99.5 lbs/day and the “Milk Production (4.0% fat basis)” value (Pre/Post Trial #1 (150/125/100 g/day in wk −3..−1/+1..+4/+5..+8), multiparious cows, weeks +1 through +4, two-trial comparison with Control Trial #2 (Table 23)) was 99.7 lbs/day. The “Milk Production (4.0% fat basis)” value (Pre/Post Trial #1 (150/125/100 g/day in wk −3..−1/+1..+4/+5..+8), multiparious cows, weeks +1 through +8) was 103 lbs/day, the “Milk Production (4.0% fat basis)” value (Pre/Post Trial #1 (150/125/100 g/day in wk −3..−1/+1..+4/+5..+8), multiparious cows, weeks +1 through +8, two-trial comparison with Control Trial #2 (Table 23)) was 103 lbs/day and the “Milk Production (4.0% fat basis)” value (Pre/Post Trial #1 (150/125/100 g/day in wk −3..−1/+1..+4/+5..+8), multiparious cows, weeks +5 through +8) was 107 lbs/day. The “Milk Production (4.0% fat basis)” value (Pre/Post Trial #1 (150/125/100 g/day in wk −3..−1/+1..+4/+5..+8), multiparious cows, weeks +5 through +8, two-trial comparison with Control Trial #2 (Table 23)) was 107 lbs/day, the “greater production of 4% fat-corrected milk” value (Pre/Post Trial #1 (150/125/100 g/day) versus Control Trial #2, multiparious cows, week +8) was 13.2% and the “increase in production of 4% fat-corrected milk” value (Pre/Post Trial #1 (150/125/100 g/day) versus Control Trial #2, multiparious cows, weeks +5 through +8 (Table 23)) was 8.1%. The “greater rate of 4% fat-corrected milk production” value (Pre/Post Trial #1 (150/125/100 g/day) versus Pre/Post Trial #2 (75/75/100 g/day), multiparious cows, week +8) was 15.1%, the “Milk Production (4.0% fat basis)” value (Pre/Post Trial #2 (75/75/100 g/day in wk −3..−1/+1..+4/+5..+8), multiparious cows, week +1) was 88.6^b lbs/day and the “Milk Production (4.0% fat basis)” value (Pre/Post Trial #2 (75/75/100 g/day in wk −3..−1/+1..+4/+5..+8), multiparious cows, week +2) was 103 lbs/day. For the same molecule, the “Milk Production (4.0% fat basis)” value (Pre/Post Trial #2 (75/75/100 g/day in wk −3..−1/+1..+4/+5..+8), multiparious cows, week +3) was 106 lbs/day, the “Milk Production (4.0% fat basis)” value (Pre/Post Trial #2 (75/75/100 g/day in wk −3..−1/+1..+4/+5..+8), multiparious cows, week +4) was 105 lbs/day and the “Milk Production (4.0% fat basis)” value (Pre/Post Trial #2 (75/75/100 g/day in wk −3..−1/+1..+4/+5..+8), multiparious cows, week +5) was 111^b lbs/day. The “Milk Production (4.0% fat basis)” value (Pre/Post Trial #2 (75/75/100 g/day in wk −3..−1/+1..+4/+5..+8), multiparious cows, week +6) was 104 lbs/day, the “Milk Production (4.0% fat basis)” value (Pre/Post Trial #2 (75/75/100 g/day in wk −3..−1/+1..+4/+5..+8), multiparious cows, week +7) was 101 lbs/day and the “Milk Production (4.0% fat basis)” value (Pre/Post Trial #2 (75/75/100 g/day in wk −3..−1/+1..+4/+5..+8), multiparious cows, week +8) was 94.4^a lbs/day. The “Milk Production (4.0% fat basis)” value (Pre/Post Trial #2 (75/75/100 g/day in wk −3..−1/+1..+4/+5..+8), multiparious cows, weeks +1 through +4) was 100.6 lbs/day, the “Milk Production (4.0% fat basis)” value (Pre/Post Trial #2 (75/75/100 g/day in wk −3..−1/+1..+4/+5..+8), multiparious cows, weeks +1 through +8) was 101 lbs/day and the “Milk Production (4.0% fat basis)” value (Pre/Post Trial #2 (75/75/100 g/day in wk −3..−1/+1..+4/+5..+8), multiparious cows, weeks +5 through +8) was 102 lbs/day. The “greater production of 4% fat-corrected milk” value (Pre/Post Trial #2 (75/75/100 g/day) versus Control Trial #2, multiparious cows, week +5) was 12.1% and the “greater rate of 4% fat-corrected milk production” value (Pre/Post Trial #2 (75/75/100 g/day) versus Pre-Partum Trial #2 (75/0/100 g/day), multiparious cows, week +1) was 24.6%.
